Measurements published in PubChem BioAssay AID2060893 (Molecular Pharmacology Branch, DTP, NCI, 2025).

Test system: K86415-001-R-J1-PDC complex spheroids, viability
Test: Anticancer human tumor K86415-001-R-J1-PDC patient-derived lung adenocarcinoma cell line growth inhibition [RAS]
Conditions: for IC50: curve of first compound; for viability, T/C: stronger effect = lower value
Summary of the method: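 Tumour cells grown as complex spheroids with HUVEC endothelial cells and mesenchymal stem cells, treated with RAS pathway inhibitor combinations. Each agent spans half-log steps from near clinical Cmax, or 10 microM where Cmax is unknown.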

[1] = second compound 0.000949 µM, first compound 0.0316 µM
[2] = second compound 0.000949 µM, first compound 0.1 µM
[3] = second compound 0.000949 µM, first compound 0.316 µM
[4] = second compound 0.000949 µM, first compound 1 µM
[5] = second compound 0.000949 µM, first compound 3.16 µM
[6] = second compound 0.000949 µM, first compound 10 µM
[7] = second compound 0.003 µM, first compound 0.0316 µM
[8] = second compound 0.003 µM, first compound 0.1 µM
[9] = second compound 0.003 µM, first compound 0.316 µM
[10] = second compound 0.003 µM, first compound 1 µM
[11] = second compound 0.003 µM, first compound 3.16 µM
[12] = second compound 0.003 µM, first compound 10 µM
[13] = second compound 0.00949 µM, first compound 0.0316 µM
[14] = second compound 0.00949 µM, first compound 0.1 µM
[15] = second compound 0.00949 µM, first compound 0.316 µM
[16] = second compound 0.00949 µM, first compound 1 µM
[17] = second compound 0.00949 µM, first compound 3.16 µM
[18] = second compound 0.00949 µM, first compound 10 µM
[19] = second compound 0.03 µM, first compound 0.0316 µM
[20] = second compound 0.03 µM, first compound 0.1 µM
[21] = second compound 0.03 µM, first compound 0.316 µM
[22] = second compound 0.03 µM, first compound 1 µM
[23] = second compound 0.03 µM, first compound 3.16 µM
[24] = second compound 0.03 µM, first compound 10 µM
[25] = second compound 0.0949 µM, first compound 0.0316 µM
[26] = second compound 0.0949 µM, first compound 0.1 µM
[27] = second compound 0.0949 µM, first compound 0.316 µM
[28] = second compound 0.0949 µM, first compound 1 µM
[29] = second compound 0.0949 µM, first compound 3.16 µM
[30] = second compound 0.0949 µM, first compound 10 µM
[31] = second compound 0.3 µM, first compound 0.0316 µM
[32] = second compound 0.3 µM, first compound 0.1 µM
[33] = second compound 0.3 µM, first compound 0.316 µM
[34] = second compound 0.3 µM, first compound 1 µM
[35] = second compound 0.3 µM, first compound 3.16 µM
[36] = second compound 0.3 µM, first compound 10 µM
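Further: spheroids exposed to agents for seven days before readout.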

With `CC(C)NCC(C(=O)N1CCN(c2ncnc3c2C(C)CC3O)CC1)c1ccc(Cl)cc1` (stereo not drawn) + CCn1c(-c2cc(N3CCN(C)CC3)cnc2C(C)OC)c2c3cc(ccc31)-c1csc(n1)CC(NC(=O)C1CC1C)C(=O)N1CCCC(N1)C(=O)OCC(C)(C)C2 the IC50 (second compound 0.000949 µM) was 43 nM, the IC50 (second compound 0.003 µM) was < 31.6 nM and the IC50 (second compound 0.00949 µM) was < 31.6 nM. The IC50 (second compound 0.03 µM) was < 31.6 nM, the IC50 (second compound 0.0949 µM) was < 31.6 nM and the IC50 (second compound 0.3 µM) was < 31.6 nM. For the same compound, the viability, T/C [1] was 52.1%, the viability, T/C [2] was 48.3% and the viability, T/C [3] was 28.8%. It also gave a viability, T/C [4] of 31.1%, a viability, T/C [5] of 29% and a viability, T/C [6] of 13.3%. The viability, T/C [7] was 25%, the viability, T/C [8] was 15.2% and the viability, T/C [9] was 13.7%. It also gave a viability, T/C [10] of 16%, a viability, T/C [11] of 10.4% and a viability, T/C [12] of 3.32%. It also gave a viability, T/C [13] of 12.1%, a viability, T/C [14] of 15.4% and a viability, T/C [15] of 6.91%. For the same compound, the viability, T/C [16] was 4.13%, the viability, T/C [17] was 1.63% and the viability, T/C [18] was 1%. It also gave a viability, T/C [19] of 5.32%, a viability, T/C [20] of 4.39% and a viability, T/C [21] of 3.56%. For the same compound, the viability, T/C [22] was 1.38%, the viability, T/C [23] was 0.66% and the viability, T/C [24] was 0.65%. The viability, T/C [25] was 2.69%, the viability, T/C [26] was 3.08% and the viability, T/C [27] was 1.6%. For the same compound, the viability, T/C [28] was 0.75%, the viability, T/C [29] was 0.62% and the viability, T/C [30] was 0.56%. For the same compound, the viability, T/C [31] was 2.88%, the viability, T/C [32] was 1.88% and the viability, T/C [33] was 1.86%. It also gave a viability, T/C [34] of 0.88%, a viability, T/C [35] of 0.75% and a viability, T/C [36] of 0.84%.

In the case of `CC(C)n1nc(-c2ccc3oc(N)nc3c2)c2c(N)ncnc21` + CCn1c(-c2cc(N3CCN(C)CC3)cnc2C(C)OC)c2c3cc(ccc31)-c1csc(n1)CC(NC(=O)C1CC1C)C(=O)N1CCCC(N1)C(=O)OCC(C)(C)C2, the IC50 (second compound 0.000949 µM) is reported as < 0.316 nM, the IC50 (second compound 0.003 µM) is reported as < 0.316 nM and the IC50 (second compound 0.00949 µM) is reported as < 0.316 nM. The IC50 (second compound 0.03 µM) was < 0.316 nM, the IC50 (second compound 0.0949 µM) was < 0.316 nM and the IC50 (second compound 0.3 µM) was < 0.316 nM. For the same compound, the viability, T/C (second compound 0.000949 µM, first compound 0.000316 µM) was 46.4%, the viability, T/C (second compound 0.000949 µM, first compound 0.001 µM) was 46.7% and the viability, T/C (second compound 0.000949 µM, first compound 0.00316 µM) was 39.5%. It also gave a viability, T/C (second compound 0.000949 µM, first compound 0.01 µM) of 43.9%, a viability, T/C [1] of 35.4% and a viability, T/C [2] of 20.4%. The viability, T/C (second compound 0.003 µM, first compound 0.000316 µM) was 23.1%, the viability, T/C (second compound 0.003 µM, first compound 0.001 µM) was 17.4% and the viability, T/C (second compound 0.003 µM, first compound 0.00316 µM) was 18.4%. For the same compound, the viability, T/C (second compound 0.003 µM, first compound 0.01 µM) was 16.3%, the viability, T/C [7] was 23.8% and the viability, T/C [8] was 7.47%. For the same compound, the viability, T/C (second compound 0.00949 µM, first compound 0.000316 µM) was 11.5%, the viability, T/C (second compound 0.00949 µM, first compound 0.001 µM) was 9.33% and the viability, T/C (second compound 0.00949 µM, first compound 0.00316 µM) was 9.17%. It also gave a viability, T/C (second compound 0.00949 µM, first compound 0.01 µM) of 8.21%, a viability, T/C [13] of 3.17% and a viability, T/C [14] of 2.45%. It also gave a viability, T/C (second compound 0.03 µM, first compound 0.000316 µM) of 5.52%, a viability, T/C (second compound 0.03 µM, first compound 0.001 µM) of 4.5% and a viability, T/C (second compound 0.03 µM, first compound 0.00316 µM) of 3.7%. The viability, T/C (second compound 0.03 µM, first compound 0.01 µM) was 2.13%, the viability, T/C [19] was 0.97% and the viability, T/C [20] was 1.14%. It also gave a viability, T/C (second compound 0.0949 µM, first compound 0.000316 µM) of 3.75%, a viability, T/C (second compound 0.0949 µM, first compound 0.001 µM) of 3.4% and a viability, T/C (second compound 0.0949 µM, first compound 0.00316 µM) of 2.07%. For the same compound, the viability, T/C (second compound 0.0949 µM, first compound 0.01 µM) was 1.07%, the viability, T/C [25] was 0.49% and the viability, T/C [26] was 0.77%. For the same compound, the viability, T/C (second compound 0.3 µM, first compound 0.000316 µM) was 2.48%, the viability, T/C (second compound 0.3 µM, first compound 0.001 µM) was 2.57% and the viability, T/C (second compound 0.3 µM, first compound 0.00316 µM) was 2.13%. It also gave a viability, T/C (second compound 0.3 µM, first compound 0.01 µM) of 0.8%, a viability, T/C [31] of 0.57% and a viability, T/C [32] of 0.8%.

In the case of `CC(Nc1ccc2c(c1)OCCn1cc(N3C(=O)OCC3C(F)F)nc1-2)C(N)=O` (stereo not drawn) + CCn1c(-c2cc(N3CCN(C)CC3)cnc2C(C)OC)c2c3cc(ccc31)-c1csc(n1)CC(NC(=O)C1CC1C)C(=O)N1CCCC(N1)C(=O)OCC(C)(C)C2, the IC50 (second compound 0.000949 µM) is reported as < 31.6 nM, the IC50 (second compound 0.003 µM) is reported as < 31.6 nM and the IC50 (second compound 0.00949 µM) is reported as < 31.6 nM. The IC50 (second compound 0.03 µM) was < 31.6 nM, the IC50 (second compound 0.0949 µM) was < 31.6 nM and the IC50 (second compound 0.3 µM) was < 31.6 nM. It also gave a viability, T/C [1] of 44.1%, a viability, T/C [2] of 28.2% and a viability, T/C [3] of 22.2%. For the same compound, the viability, T/C [4] was 20.6%, the viability, T/C [5] was 16.6% and the viability, T/C [6] was 6.57%. The viability, T/C [7] was 18.8%, the viability, T/C [8] was 12.9% and the viability, T/C [9] was 12.1%. The viability, T/C [10] was 8.44%, the viability, T/C [11] was 5.02% and the viability, T/C [12] was 1.84%. It also gave a viability, T/C [13] of 11.8%, a viability, T/C [14] of 4.96% and a viability, T/C [15] of 3.08%. The viability, T/C [16] was 2.36%, the viability, T/C [17] was 1.25% and the viability, T/C [18] was 0.72%. For the same compound, the viability, T/C [19] was 4.01%, the viability, T/C [20] was 1.42% and the viability, T/C [21] was 1.24%. For the same compound, the viability, T/C [22] was 1.2%, the viability, T/C [23] was 0.54% and the viability, T/C [24] was 0.63%. It also gave a viability, T/C [25] of 1.94%, a viability, T/C [26] of 1.08% and a viability, T/C [27] of 0.93%. For the same compound, the viability, T/C [28] was 0.62%, the viability, T/C [29] was 0.8% and the viability, T/C [30] was 0.59%. The viability, T/C [31] was 2.35%, the viability, T/C [32] was 0.93% and the viability, T/C [33] was 0.73%. The viability, T/C [34] was 0.47%, the viability, T/C [35] was 0.85% and the viability, T/C [36] was 0.49%.

With `C[C@@H](NC(=O)c1ncnc(N)c1Cl)c1ncc(C(=O)Nc2cc(C(F)(F)F)c(Cl)cn2)s1` + CCn1c(-c2cc(N3CCN(C)CC3)cnc2C(C)OC)c2c3cc(ccc31)-c1csc(n1)CC(NC(=O)C1CC1C)C(=O)N1CCCC(N1)C(=O)OCC(C)(C)C2 the IC50 (second compound 0.000949 µM) was 4280 nM, the IC50 (second compound 0.003 µM) was < 31.6 nM and the IC50 (second compound 0.00949 µM) was < 31.6 nM. For the same compound, the IC50 (second compound 0.03 µM) was < 31.6 nM, the IC50 (second compound 0.0949 µM) was < 31.6 nM and the IC50 (second compound 0.3 µM) was < 31.6 nM. It also gave a viability, T/C [1] of 58.2%, a viability, T/C [2] of 62.2% and a viability, T/C [3] of 53.7%. The viability, T/C [4] was 62.2%, the viability, T/C [5] was 57.1% and the viability, T/C [6] was 29.1%. It also gave a viability, T/C [7] of 34.8%, a viability, T/C [8] of 27.6% and a viability, T/C [9] of 32.1%. For the same compound, the viability, T/C [10] was 38.1%, the viability, T/C [11] was 33.4% and the viability, T/C [12] was 21.7%. The viability, T/C [13] was 12.9%, the viability, T/C [14] was 11.8% and the viability, T/C [15] was 11.9%. For the same compound, the viability, T/C [16] was 16.6%, the viability, T/C [17] was 15.4% and the viability, T/C [18] was 11.6%. For the same compound, the viability, T/C [19] was 6.75%, the viability, T/C [20] was 8.74% and the viability, T/C [21] was 8.31%. The viability, T/C [22] was 8.07%, the viability, T/C [23] was 8.51% and the viability, T/C [24] was 7.57%. It also gave a viability, T/C [25] of 5.52%, a viability, T/C [26] of 4.87% and a viability, T/C [27] of 4.23%. The viability, T/C [28] was 4.04%, the viability, T/C [29] was 4.24% and the viability, T/C [30] was 4.39%. The viability, T/C [31] was 3.5%, the viability, T/C [32] was 3.03% and the viability, T/C [33] was 4.17%. The viability, T/C [34] was 3.4%, the viability, T/C [35] was 4.53% and the viability, T/C [36] was 4.26%.
